# Data: ChEMBL document CHEMBL5390204, “Persephacin Is a Broad-Spectrum Antifungal Aureobasidin Metabolite That Overcomes Intrinsic Resistance in Aspergillus fumigatus” (J Nat Prod, 2023)
# Experiments:
# Type in all cases: functional
# [Candida] auris [1] = Antifungal activity against multidrug-resistant Candida auris 382 assessed as inhibition in fungal growth incubated for 48 hrs by microplate reader analysis; conditions: Candidozyma auris
# Mucor circinelloides [2] = test: Antifungal activity against Mucor circinelloides 235C7 assessed as reduction in fungal viability incubated for 48 hrs by microplate reader analysis
# Aspergillus fumigatus [3] = test: Antifungal activity against Aspergillus fumigatus NRRL5109 assessed as reduction in fungal growth incubated for 48 hrs by microplate reader analysis
# [Candida] auris [4] = Antifungal activity against multidrug-resistant Candida auris 381 assessed as inhibition in fungal growth incubated for 48 hrs in presence of 10% serum by microplate reader analysis; conditions: Candidozyma auris
# Aspergillus terreus [5] = test: Antifungal activity against Aspergillus terreus 191A6 assessed as reduction in fungal growth incubated for 48 hrs by microplate reader analysis
# [Candida] auris [6] = Antifungal activity against multidrug-resistant Candida auris 389 assessed as inhibition in fungal growth incubated for 48 hrs by microplate reader analysis; conditions: Candidozyma auris
# Candida duobushaemulonii = test: Antifungal activity against multidrug-resistant Candida duobushaemulonii 391 assessed as inhibition in fungal growth incubated for 48 hrs by microplate reader analysis; conditions: Candidozyma duobushaemuli
# Candida tropicalis [7] = test: Antifungal activity against Candida tropicalis 13 assessed as inhibition in fungal growth incubated for 48 hrs by microplate reader analysis
# [Candida] auris [8] = Antifungal activity against multidrug-resistant Candida auris 381 assessed as inhibition in fungal growth incubated for 48 hrs in presence of 5% serum by microplate reader analysis; conditions: Candidozyma auris
# Aspergillus fumigatus [9] = test: Antifungal activity against Aspergillus fumigatus ATCC MYA-3627 assessed as inhibition in fungal growth incubated for 48 hrs in presence of 0% serum by microplate reader analysis
# Aspergillus fumigatus [10] = test: Antifungal activity against Aspergillus fumigatus ATCC MYA-3627 assessed as inhibition in fungal growth incubated for 48 hrs in presence of 5% serum by microplate reader analysis
# Kodamaea ohmeri = test: Antifungal activity against multidrug-resistant Kodamaea ohmeri 396 assessed as inhibition in fungal growth incubated for 48 hrs by microplate reader analysis
# Kluyveromyces marxianus = test: Antifungal activity against Candida kefyr 12 assessed as inhibition in fungal growth incubated for 48 hrs by microplate reader analysis
# Nakaseomyces glabratus [11] = test: Antifungal activity against Candida glabrata 17 assessed as inhibition in fungal growth incubated for 48 hrs by microplate reader analysis
# Aspergillus fumigatus [12] = test: Antifungal activity against Aspergillus fumigatus NRRL6113 assessed as reduction in fungal growth incubated for 48 hrs by microplate reader analysis
# [Candida] auris [13] = Antifungal activity against multidrug-resistant Candida auris 385 assessed as inhibition in fungal growth incubated for 48 hrs by microplate reader analysis; conditions: Candidozyma auris
# [Candida] auris [14] = Antifungal activity against multidrug-resistant Candida auris 387 assessed as inhibition in fungal growth incubated for 48 hrs by microplate reader analysis; conditions: Candidozyma auris
# Candida parapsilosis [15] = test: Antifungal activity against Candida parapsilosis ATCC 22019 (Y-12969) assessed as reduction in fungal growth incubated for 48 hrs by microplate reader analysis; conditions: Lodderomyces parapsilosis
# [Candida] auris [16] = Antifungal activity against multidrug-resistant Candida auris 384 assessed as inhibition in fungal growth incubated for 48 hrs by microplate reader analysis; conditions: Candidozyma auris
# Candida parapsilosis [17] = test: Antifungal activity against Candida parapsilosis ATCC 22019 (Y-12969) assessed as reduction in fungal viability incubated for 48 hrs by microplate reader analysis
# Curvularia lunata [18] = test: Antifungal activity against Curvularia lunata NRRL6409 assessed as reduction in fungal viability incubated for 48 hrs by microplate reader analysis
# Mucor circinelloides [19] = test: Antifungal activity against Mucor circinelloides 235C7 assessed as reduction in fungal growth incubated for 48 hrs by microplate reader analysis
# Candida albicans [20] = test: Antifungal activity against Candida albicans SC5314 assessed as inhibition in fungal growth incubated for 48 hrs in presence of 5% serum by microplate reader analysis
# Paecilomyces lilacinus = test: Antifungal activity against Paecilomyces lilacinus 165E10 assessed as reduction in fungal growth incubated for 48 hrs by microplate reader analysis; conditions: Purpureocillium lilacinum
# Curvularia lunata [21] = test: Antifungal activity against Curvularia lunata NRRL6409 assessed as reduction in fungal growth incubated for 48 hrs by microplate reader analysis
# Candida parapsilosis [22] = test: Antifungal activity against Candida parapsilosis 15 assessed as inhibition in fungal growth incubated for 48 hrs by microplate reader analysis; conditions: Lodderomyces parapsilosis
# Cryptococcus neoformans [23] = test: Antifungal activity against Cryptococcus neoformans H99 assessed as inhibition in fungal growth incubated for 48 hrs in presence of 5% serum by microplate reader analysis
# Saccharomyces cerevisiae [24] = test: Antifungal activity against multidrug-resistant Saccharomyces cerevisiae 399 assessed as inhibition in fungal growth incubated for 48 hrs by microplate reader analysis
# Rhizopus arrhizus = test: Antifungal activity against Rhizopus oryzae FGSC 9543 assessed as reduction in fungal growth incubated for 48 hrs by microplate reader analysis
# Cryptococcus neoformans [25] = test: Antifungal activity against Cryptococcus neoformans H99 assessed as reduction in fungal viability incubated for 48 hrs by microplate reader analysis
# Aspergillus fumigatus [26] = test: Antifungal activity against Aspergillus fumigatus NRRL5109 assessed as reduction in fungal viability incubated for 48 hrs by microplate reader analysis
# Candida parapsilosis [27] = test: Antifungal activity against Candida parapsilosis 18 assessed as inhibition in fungal growth incubated for 48 hrs by microplate reader analysis; conditions: Lodderomyces parapsilosis
# Candida tropicalis [28] = test: Antifungal activity against Candida tropicalis ATCC750 (Y-12699) assessed as reduction in fungal growth incubated for 48 hrs by microplate reader analysis
# Candida albicans [29] = test: Antifungal activity against Candida albicans ATCC 10231 assessed as reduction in fungal growth incubated for 48 hrs by microplate reader analysis
# Nakaseomyces glabratus [30] = test: Antifungal activity against Candida glabrata 4 assessed as inhibition in fungal growth incubated for 48 hrs by microplate reader analysis
# Hamigera insecticola [31] = test: Antifungal activity against Hamigera insecticola NRRL35442 assessed as reduction in fungal viability incubated for 48 hrs by microplate reader analysis
# Aspergillus terreus [32] = test: Antifungal activity against Aspergillus terreus 191A6 assessed as reduction in fungal viability incubated for 48 hrs by microplate reader analysis
# Nakaseomyces glabratus [33] = test: Antifungal activity against Candida glabrata 20 assessed as inhibition in fungal growth incubated for 48 hrs by microplate reader analysis
# Saccharomyces cerevisiae [34] = test: Antifungal activity against multidrug-resistant Saccharomyces cerevisiae 400 assessed as inhibition in fungal growth incubated for 48 hrs by microplate reader analysis
# Hamigera insecticola [35] = test: Antifungal activity against Hamigera insecticola NRRL35442 assessed as reduction in fungal growth incubated for 48 hrs by microplate reader analysis
# Aspergillus niger = test: Antifungal activity against Aspergillus niger FGSC A732 assessed as reduction in fungal viability incubated for 48 hrs by microplate reader analysis
# Candida albicans [36] = test: Antifungal activity against Candida albicans 10 assessed as inhibition in fungal growth incubated for 48 hrs by microplate reader analysis
# Nakaseomyces glabratus [37] = test: Antifungal activity against Candida glabrata 22 assessed as inhibition in fungal growth incubated for 48 hrs by microplate reader analysis
smiles,measurement,setting,value
C[C@@H]1[C@H](O)[C@@H](C)/C=C/C=C/C=C/C=C/C=C/C=C/C=C/[C@H](O[C@@H]2O[C@H](C)[C@@H](O)[C@H](N)[C@@H]2O)C[C@@H]2O[C@](O)(C[C@@H](O)C[C@@H](O)[C@H](O)CC[C@@H](O)C[C@@H](O)CC(=O)O[C@H]1C)C[C@H](O)[C@H]2C(=O)O [AMPHOTERICIN B],MIC80,[Candida] auris [1],1.3 µM
same,MFC<=99.9,Mucor circinelloides [2],1.3 µM
same,MFC,Aspergillus fumigatus [3],5 µM
same,MIC80,Aspergillus fumigatus [3],2.5 µM
same,MIC80,[Candida] auris [4],0.3 µM
same,MFC,Aspergillus terreus [5],10 µM
same,MIC80,Aspergillus terreus [5],2.5 µM
same,MIC80,[Candida] auris [6],5 µM
same,MIC80,Candida duobushaemulonii,5 µM
same,MIC80,Candida tropicalis [7],0.2 µM
same,MIC80,[Candida] auris [8],< 0.2 µM
same,MIC80,Aspergillus fumigatus [9],2.5 µM
same,MIC80,Aspergillus fumigatus [10],< 0.1 µM
same,MIC80,Kodamaea ohmeri,1.3 µM
same,MIC80,Kluyveromyces marxianus,0.3 µM
same,MIC80,Nakaseomyces glabratus [11],0.3 µM
same,MFC,Aspergillus fumigatus [12],10 µM
same,MIC80,Aspergillus fumigatus [12],2.5 µM
same,MIC80,[Candida] auris [13],2.5 µM
same,MIC80,[Candida] auris [14],2.5 µM
same,MFC,Candida parapsilosis [15],5 µM
same,MIC80,Candida parapsilosis [15],1.3 µM
same,MIC80,[Candida] auris [16],2.5 µM
same,MFC<=99.9,Candida parapsilosis [17],5 µM
same,MFC<=99.9,Curvularia lunata [18],2.5 µM
same,MFC,Mucor circinelloides [19],1.3 µM
same,MIC80,Mucor circinelloides [19],1.3 µM
same,MIC80,Candida albicans [20],< 0.2 µM
same,MFC,Paecilomyces lilacinus,> 10 µM
same,MIC80,Paecilomyces lilacinus,> 10 µM
same,MFC,Curvularia lunata [21],2.5 µM
same,MIC80,Curvularia lunata [21],0.3 µM
same,MIC80,Candida parapsilosis [22],2.5 µM
same,MIC80,Cryptococcus neoformans [23],< 0.2 µM
same,MIC80,Saccharomyces cerevisiae [24],2.5 µM
same,MFC,Rhizopus arrhizus,0.3 µM
same,MIC80,Rhizopus arrhizus,0.3 µM
same,MFC<=99.9,Cryptococcus neoformans [25],2.5 µM
same,MFC<=99.9,Aspergillus fumigatus [26],5 µM
same,MIC80,Candida parapsilosis [27],1.3 µM
same,MFC,Candida tropicalis [28],2.5 µM
same,MIC80,Candida tropicalis [28],1.3 µM
same,MFC,Candida albicans [29],2.5 µM
same,MIC80,Candida albicans [29],0.6 µM
same,MIC80,Nakaseomyces glabratus [30],1.3 µM
same,MFC<=99.9,Hamigera insecticola [31],10 µM
same,MFC<=99.9,Aspergillus terreus [32],10 µM
same,MIC80,Nakaseomyces glabratus [33],0.6 µM
same,MIC80,Saccharomyces cerevisiae [34],1.3 µM
same,MFC,Hamigera insecticola [35],10 µM
same,MIC80,Hamigera insecticola [35],2.5 µM
same,MFC<=99.9,Aspergillus niger,2.5 µM
same,MIC80,Candida albicans [36],0.6 µM
same,MIC80,Nakaseomyces glabratus [37],0.3 µM
CC[C@H](C)C[C@H](C)C[C@H](C)C[C@@H]1NC(=O)[C@H](C(C)C)N(C)C(=O)[C@@H]([C@H](C)CC)OC(=O)[C@H](C(C)(C)O)N(C)C(=O)[C@H](CC(C)C)NC(=O)[C@H](C(C)C)N(C)C(=O)[C@H]([C@H](C)CC)NC(=O)[C@@H]2CCCN2C(=O)CN(C)C1=O,MIC80,[Candida] auris [1],2.5 µM
same,MFC<=99.9,Mucor circinelloides [2],>10 µM
same,MFC,Aspergillus fumigatus [3],5 µM
same,MIC80,Aspergillus fumigatus [3],2.5 µM
same,MIC80,[Candida] auris [4],1.3 µM
same,MFC,Aspergillus terreus [5],> 10 µM
same,MIC80,Aspergillus terreus [5],2.5 µM
same,MIC80,[Candida] auris [6],2.5 µM
same,MIC80,Candida duobushaemulonii,2.5 µM
same,MIC80,Candida tropicalis [7],0.6 µM
same,MIC80,[Candida] auris [8],1.3 µM
same,MIC80,Aspergillus fumigatus [9],2.5 µM
same,MIC80,Aspergillus fumigatus [10],2.5 µM
same,MIC80,Kodamaea ohmeri,2.5 µM
same,MIC80,Kluyveromyces marxianus,1.3 µM
same,MIC80,Nakaseomyces glabratus [11],0.2 µM
same,MFC,Aspergillus fumigatus [12],5 µM
same,MIC80,Aspergillus fumigatus [12],2.5 µM
same,MIC80,[Candida] auris [13],2.5 µM
same,MIC80,[Candida] auris [14],2.5 µM
same,MFC,Candida parapsilosis [15],2.5 µM
same,MIC80,Candida parapsilosis [15],2.5 µM
same,MIC80,[Candida] auris [16],2.5 µM
same,MFC<=99.9,Candida parapsilosis [17],2.5 µM
same,MFC<=99.9,Curvularia lunata [18],0.6 µM
same,MFC,Mucor circinelloides [19],> 10 µM
same,MIC80,Mucor circinelloides [19],> 10 µM
same,MIC80,Candida albicans [20],0.2 µM
same,MFC,Paecilomyces lilacinus,> 10 µM
same,MIC80,Paecilomyces lilacinus,2.5 µM
same,MFC,Curvularia lunata [21],0.6 µM
same,MIC80,Curvularia lunata [21],0.3 µM
same,MIC80,Candida parapsilosis [22],2.5 µM
same,MIC80,Cryptococcus neoformans [23],< 0.2 µM
same,MIC80,Saccharomyces cerevisiae [24],2.5 µM
same,MFC,Rhizopus arrhizus,> 10 µM
same,MIC80,Rhizopus arrhizus,> 10 µM
same,MFC<=99.9,Cryptococcus neoformans [25],2.5 µM
same,MFC<=99.9,Aspergillus fumigatus [26],5 µM
same,MIC80,Candida parapsilosis [27],1.3 µM
same,MFC,Candida tropicalis [28],2.5 µM
same,MIC80,Candida tropicalis [28],1.3 µM
same,MFC,Candida albicans [29],1.3 µM
same,MIC80,Candida albicans [29],0.6 µM
same,MIC80,Nakaseomyces glabratus [30],1.3 µM
same,MFC<=99.9,Hamigera insecticola [31],5 µM
same,MFC<=99.9,Aspergillus terreus [32],>10 µM
same,MIC80,Nakaseomyces glabratus [33],0.3 µM
same,MIC80,Saccharomyces cerevisiae [34],2.5 µM
same,MFC,Hamigera insecticola [35],5 µM
same,MIC80,Hamigera insecticola [35],0.6 µM
same,MFC<=99.9,Aspergillus niger,>10 µM
same,MIC80,Candida albicans [36],2.5 µM
same,MIC80,Nakaseomyces glabratus [37],0.6 µM
